Assay results from ChEMBL document CHEMBL1132357, “Synthesis and properties of 3-(2-hydroxyethyl)-3-n-pentyldiazirine, a photoactivable general anesthetic” (J Med Chem, 1999).

Assay: The compound was tested for anesthetic potency in tadpoles
Assay type: functional, frog

EC50: 160 µM
SMILES: CCCCCC1(CCO)N=N1
